Results on 1 compound are retold here after patent US20230134760A1, “CAR AND NRF2 DUAL ACTIVATOR AGENTS FOR CYCLOPHOSPHAMIDE-BASED AND DOXORUBICIN-BASED TREATMENTS OF CANCER” (priority 2020, published 2023).

The subject of one series is MDA-MB-231 cells. Nature of the series: Cell viability assay, DOX-induced toxicity in MDA-MB-231 cells. Particulars: MDA-MB-231, DOX 2.5 μM. It counts as cell-based. As to the method: (§1) Immortalized triple negative breast cancer cell lines MDA-MB-231 and BT549 were obtained from ATCC (Rockville, Md.). Additionally, the h9c2 cell line was purchased from ATCC (Rockville, Md.). […] Human iPSC-derived cardiomyocytes were maintained in Mtesr plus and supplemented according to protocol. These cells were treated for 2 hrs or an overnight as indicated. Following a 2 hr pretreatment, cells were co-treated with DOX at indicated concentrations for 6 or 22 hours. Following the overnight treatments, RNA or protein was isolated. HPH were seeded in collagen-coated 24 well plates and pretreated for 24 hrs. BT549 were seeded on inverted coverslips. After a 24 hr pretreatment, hepatocytes were co-administered as indicated and coverslips were inserted. The cell lines were used for less than 60 passages. H9c2 cells were seeded 0.8×10^5 in 24-well plates. […] A Cell Counting Kit-8 (Enzo) assay was carried out. Cell viability was described as a percent of vehicle control (0.1% DMSO).

A further series relates to hCAR or Nrf2. The experiment in a line: all curve and EC50 curve of selected compounds (FIG. 22-35). Type of series: cell-based. Set-up: key to Emax: fold activation; firefly luciferase normalized to Renilla. Particulars: figure legend values. As to the method: Cell lysates were assayed for luciferase activity and normalized against the activity of the Renilla luciferase using a Dual-Luciferase Kit (Promega). […] Compound 2, DL7076, was selected for further evaluation based on its effects in activating hCAR and Nrf2 using the HepG2 cell reporter assay (FIGS. 37a-37c).

Another series relates to HO-1. Nature of the series: HO-1 expression in human iPSC-derived cardiomyocytes. It counts as cell-based. Particulars: human iPSC-derived cardiomyocytes, 1, 5, 10 μM. As to the method: as §1, with “passages. After 24 h treatment, HPH, BT549, MDA-MB-231, and” for “passages.”, “washed and a phenol-chloroform extraction was used to isolate total RNA with the TRIzol reagent (ThermoFisher, Rockford, Ill.). Reverse transcription was performed on extracted RNA (1 μg) to produce cDNA using the High Capacity cDNA Archive kit according to manufacturer's instructions (Applied Biosystems, Foster, Calif.).” for “seeded 0.8×10^5 in 24-well plates.”, “Quantification of expression changes” for “A Cell Counting Kit-8 (Enzo) assay”, “done by the 2^ΔΔCt method, normalizing to GAPDH” for “carried out. Cell viability was described”, “the housekeeping gene and determining the fold change compared to” for “a percent of vehicle”, “values (n=3).” for “(0.1% DMSO).”

The test system of the next series is H9c2 cells. Nature of the series: Oxidative stress imaging (DFDA) in H9c2 cells. Type of series: cell-based, rat. Particulars: H9c2, DL7076 5 μM, 2-hour pretreatment and 6-hour cotreatment with DOX. As to the method: H9c2 rat cardiomyocytes seeded at 0.8×10^5 in 24-well plates. […] Cells were washed 3× with PBS. Subsequently, 0.5 mL of WEM containing 20 μM 2'-7'-dichlorofluorescein diacetate (DFDA) was added to each well. The cells were incubated at 37° C. and 5% CO2 for 30 min. The oxidation of DFDA to the fluorescent dichlorofluorescein was viewed using fluorescence microscopy (Nikon Eclipse Ti) with a FITC filter at […] and quantified using Brightspot detection for fluorescent detection of triplicate images and normalized to the vehicle control (0.1% DMSO). Cells on coverslips from co-culture experiments were fixed using 4% paraformaldehyde and permealized using Triton-X 100. A primary antibody for mouse anti-phospho-H2AX ([…]) was incubated overnight. Goat anti-mouse IgG Fluor Alexa 488 (1:200) was incubated for 2 hrs. Phosphorylation was calculated through fluorescence intensity all normalized to the vehicle control.

The subject of another series is cleaved caspase-3. The experiment in a line: Cleaved caspase-3 Western blot in H9c2 cardiomyocytes. Type of series: cell-based, rat. An excerpt:
Protein was harvested using cell lysis buffer (Cell Signaling Technology, Danvers, Mass.) with a complete protease inhibitor cocktail (Roche, Mannheim, Germany) prior to homogenizing via sonification. Homogenized protein from treated HPH, H9c2, BT549, and MDA-MB-231 cells were resolved on NuPage Novex Bis-Tris 4-12% gels (Life Technologies) or NuPage Novex Bis-Tris 12% gel and transferred through electrophoresis onto immobilon-P polyvinylidene difluoride (PVDF) membranes. Membranes were blocked with 5% BSA or 5% milk in Tris-Buffer saline with Tween 20 (TBST). Further, membranes were incubated with specific antibodies against human CYP2B6 (1:1000, Abcam), CYP3A4 (1:1000, Millipore Sigma), HO-1 (1:1000, Abcam), cleaved caspase-3 (1:1000 Cell Signaling Technologies), Nrf2 (1:1000, Abcam), TATA-Binding Protein (1:500, Santa Cruz) β-actin (1:3000, Millipore Sigma) at 4° C. overnight. Following overnight incubation, horseradish peroxidase goat anti-mouse or anti-rabbit IgG antibodies were used for secondary incubation. Membranes were developed using SuperSignal West Pico Chemiluminescent Substrate (Thermo Scientific) or Radiance Q (Azure). Two TNBC cell lines, cardiomyocytes, and HPH protein samples were isolated and resolved on a 4-12% or 12% SDS PAGE gel followed by electrophoretic transfer to a PVDF membrane. Membranes were probed 1:1000 for CYP2B6, CYP3A4, Nrf2, cleaved caspase 3, and HO-1 using β-actin (1:3000) or TBP (1:500) as a loading control.

Molecules are shown by their SMILES. pEC50: −log10 of the molar value.

Consider `O=C(NCCN=C=S)c1c(-c2ccc3ccccc3c2)nc2sccn12` [DL7076, N-(2-Isothiocyanatoethyl)-6-(naphthalen-2-yl)imidazo[2,1-b]thiazole-5-carboxamide], for which the “reversal of DOX-induced toxicity (viability)” value in the series with MDA-MB-231 cells was “this efficient reversal was not shown”. The Emax in the series on hCAR or Nrf2 is recorded as 2.5. For the same compound, in the series on hCAR or Nrf2 (read-out: EC50), the negative-log EC50 (pEC50) is 5.41. Besides, the HO-1 expression entry with HO-1 is “concentration-dependently induced”. The “ROS (fluorescence intensity) with cotreatment” value in the series on H9c2 cells is on record as “significantly reduced ROS”. In addition, the “cleaved caspase-3 expression with pretreatment” value with cleaved caspase-3 (H9c2, DL7076 pretreatment + DOX 2.5 μM) is “notably reduced in a concentration dependent manner”. For the same compound, in the series with cleaved caspase-3 (H9c2, without DOX), the “cleaved caspase-3 expression, compound alone” value is reported as “no expression in cleaved caspase-3”.
